A melting point compilation (Tetko et al.; mined from patent text by program, amines drawn as free bases though some values may be those of a salt)

SMILES	melting point [°C]
O=c1oc2ccccc2c2oc(=S)c(-c3ccccc3)cc12	256 to 257
N#Cc1cc(F)cc(-c2cc(N)c3c(c2)C2(CCCCC2)C(=O)N3)c1	241 to 243
ClCc1ccccc1-c1ccccc1-c1ccccc1CCl	189 to 190
CCC(C(=O)O)C1=NC(c2ccccc2)(c2ccccc2)CO1 (stereo not given)	125 to 126
CC1OOC2(/C=C\c3ccc(C(F)(F)F)cc3C(F)(F)F)CC1CC(=O)C2C (stereo not given)	124
COc1ccc(CCOc2cccc(-c3cccc(C(N)=O)c3)n2)cc1OC	141 to 142
N#Cc1cnc2cc(Br)ccc2c1Nc1ccc(Oc2ccccc2)cc1	205 to 207
O=C(Oc1ccc(O)cc1)c1ccc(O)cc1	242 to 245
C#CC1N(C(=O)Oc2ccccc2)c2cc(OC(=O)C(C)(C)C)ccc2C23OC12CCCC3=O (stereo not given)	164 to 166
Cn1nc(C(O)c2ccccc2)nc1NCC(O)COc1cccc(CN2CCCCC2)c1 (stereo not given)	154 to 157
CS(=O)(=O)Nc1ccc(CCN2CCc3ccc(NS(C)(=O)=O)cc3CC2)cc1	184 to 187
CCCCCc1c(C(C)C)nc(C(C)C)c(CO)c1-c1ccc(F)cc1	100 to 101
CC(=O)Oc1ccc(-c2c3ccccc3c(Br)c3sc(C)c(C)c23)cc1	190 to 191
O=Cc1cccc(Sc2ccccc2Cl)c1O	111 to 112
Nc1nc(N)c(-c2cccc(Cl)c2Cl)c(C(F)(F)F)n1	218 to 219
CC(C)(C)OC(=O)CON=C(C(=O)O)c1cccs1	88.3 to 91.3
C[C@@](O)(C(=O)N1CCC(C(=O)c2ccc(F)cc2)CC1)C(F)(F)F	78 to 79
O=C(Cn1nc2ccccc2n1)Nc1ccc(-n2nc(C(F)(F)F)cc2C2CC2)cc1	188 to 192
O=c1oc2c(c(=O)n1C1CCCCCCC1)CCC2	48 to 51
CCCCCCCCOC(=O)CCCCCNC(=O)c1cc(OCc2ccccc2)ccc1OCc1ccccc1	48 to 50
CCc1nc(NC2CCCC2)c(-c2ccccc2)c(NC2CCCC2)n1	70 to 71
C/C(=C\CCl)n1ncc(-c2ccc(S(N)(=O)=O)cc2)c(-c2ccc(F)cc2)c1=O	152 to 154
COC(=O)[C@@H]1C[C@H](O[Si](C)(C)C)C(=O)[C@H]2[C@@]1(C)CC[C@H]1C(=O)O[C@H](c3ccoc3)C[C@]21C	197 to 200
O=C(Nc1nc2ccc(Sc3cnc4ccc(-c5cccc(F)c5)cn34)cc2s1)C1CC1	> 260
CCOc1cccc(NC(=O)Nc2ccc(N3CCN(C(=O)Nc4cc(OCCO)ccc4Cl)CC3)nc2)c1	140 to 143

SMILES	melting point [°C]
Cc1cc(Oc2c(Cl)cc(C(F)(F)F)cc2[N+](=O)[O-])nn1C(=O)OC(C)(C)C	119 to 121
CC(C)(C)c1cc(CC#Cc2ccc(C(=O)O)cc2)cc(C(C)(C)C)c1O	198 to 199
Cc1ccc2occ(C3CCN(CCc4cc5c(s4)CCCC(=O)N5)CC3)c2c1	156 to 158
Cc1cc(C)c(S(=O)(=O)On2nnc3ccccc32)c(C)c1	128 to 130
COc1cc(Cc2cnc(NCCCCc3ncc(Br)cc3C)[nH]c2=O)ccn1	120 to 121
O=c1[nH]ncc2[nH]c(-c3ccc(OC(F)F)c(OC4CCC4)c3)c(-c3ccccc3)c12	280 to 284
C[C@H](NC(=O)c1c(F)cccc1[N+](=O)[O-])C(=O)O	142 to 144
O=C(O)c1cccc(CSCCNC(=O)c2c(Cl)cccc2Cl)c1	165 to 166
COc1ccc(CC(=O)c2cccnc2)cc1OC	188 to 191
Cn1c2c(c3cc(Cl)ccc31)CCC(C(=O)O)C2 (stereo not given)	259 to 260
CNc1nc2ccc(CCc3ccccn3)cc2s1	118 to 120
Cc1nc(C(C)(O)c2ccsc2)c(C)o1 (stereo not given)	83 to 84
N#Cc1nc(-c2ccc(OCCN3CCCCC3)cc2)cs1	85 to 86
COCCN1CCN(c2cccc(-c3nc4cc(OC)cc(OC)c4c(=O)[nH]3)n2)CC1	99 to 101
CC(=O)OC1CSC(Oc2cccc(-c3cncc(F)c3)c2)C(OC(C)=O)C1OC(C)=O (stereo not given)	135
O=C1CNc2ncc(I)cc2N1Cc1cc(F)ccc1C(F)(F)F	244 to 245
CCCCCC(CC(=O)OC)c1cc(C=O)c(OC)cc1OC (stereo not given)	110 to 112
COC(=O)C1=C(C)NC(C)=C(C(=O)OC(C)(C)C)C1c1cccc(N)c1 (stereo not given)	85 to 90
COC(=O)c1cccc2nc(SCCCN3CCN(CC(=O)Nc4c(C(C)C)cccc4C(C)C)CC3)oc12	135 to 136
Cn1ncc(C(=O)N2CCCC2)c1C(=O)Nc1ccn2nc(N3CCOCC3)nc2c1	210 to 212
CC(C)(CSc1ccc(Cl)cc1)C(O)C(Oc1ccc(Cl)cc1)n1cncn1 (stereo not given)	132
O=C(Cl)N1CC(Oc2ccccc2Cl)C1	80 to 82
O=C(Nc1cc(Cl)c([N+](=O)[O-])cc1O)C(=O)Nc1cc(Cl)c([N+](=O)[O-])cc1O	302
C[C@]12CCC(=O)C=C1CC[C@@H]1[C@@H]2CC[C@]2(C(F)F)C(=O)CC[C@@H]12	183 to 184
O=S(=O)(c1ccccc1)C1C2CCC(C2)C1Br (stereo not given)	108 to 110
